Earlier results, collected in patent US9765092B2, “Tricyclic piperidine compounds” (ACTELION PHARMACEUTICALS LTD, priority 2013, dated 2017).

Key:
5HT / 5HIAA = settings: phase IIA study, qid; cited from earlier work
5HT [1] = settings: in vivo; cited from earlier work
5HT [2] = settings: mice; cited from earlier work
cholangiocarcinoma = settings: xenograft model of cholangiocarcinoma; cited from earlier work
5HT [3] = settings: 200 mg/kg i.p. qid for 3 days; cited from earlier work

SMILES: COc1cccc(-c2ccc([C@@H](Oc3cc(-c4ccc(C[C@H](N)C(=O)O)cc4)nc(N)n3)C(F)(F)F)cc2)c1 [LX1031, (S)-2-Amino-3-(4-{2-amino-6-[(R)-2,2,2-trifluoro-1-(3′-methoxy-biphenyl-4-yl)-ethoxy]-pyrimidin-4-yl}-phenyl)-propionic acid]
- blood 5HT (5HT / 5HIAA): did not affect blood 5HT
- urinary 5HIAA reduction (5HT / 5HIAA): up to 30%
- 5HT in the colon (5HT [1]): only a minor reduction
- 5HT in the jejunum (5HT [1]): lowers 5HT in the jejunum
- brain 5HT (5HT [1]): no effect on brain 5HT

SMILES: Nc1nc(OC(c2ccc(-c3cccc(F)c3)cc2)C(F)(F)F)cc(-c2ccc(C[C@H](N)C(=O)O)cc2)n1 (stereo partly shown) [LP533401]
- brain 5HT concentrations (5HT [2]): without effecting brain concentrations
- gut 5HT (5HT [2]): lower gut 5HT

SMILES: N[C@@H](Cc1ccc(Cl)cc1)C(=O)O (racemic) [PCA, p-chlorophenylalanine]
- tumor volume (cholangiocarcinoma): dramatic reduction in tumor volume
- 5HT in the brain (5HT [3]): ~20 % original
- 5HT in the gut (5HT [3]): ~50 % original
